24 compounds from patent US20240182453A1, “NOVEL SUBSTITUTED PYRAZINE-CARBOXAMIDE DERIVATIVES” (Boehringer Ingelheim International GmbH, priority 2022, published 2024) can be followed below.

Structures are written as SMILES.

Sequence of human metabotropic Glutamate 4 receptor (mGluR4) (Q14833 33-912): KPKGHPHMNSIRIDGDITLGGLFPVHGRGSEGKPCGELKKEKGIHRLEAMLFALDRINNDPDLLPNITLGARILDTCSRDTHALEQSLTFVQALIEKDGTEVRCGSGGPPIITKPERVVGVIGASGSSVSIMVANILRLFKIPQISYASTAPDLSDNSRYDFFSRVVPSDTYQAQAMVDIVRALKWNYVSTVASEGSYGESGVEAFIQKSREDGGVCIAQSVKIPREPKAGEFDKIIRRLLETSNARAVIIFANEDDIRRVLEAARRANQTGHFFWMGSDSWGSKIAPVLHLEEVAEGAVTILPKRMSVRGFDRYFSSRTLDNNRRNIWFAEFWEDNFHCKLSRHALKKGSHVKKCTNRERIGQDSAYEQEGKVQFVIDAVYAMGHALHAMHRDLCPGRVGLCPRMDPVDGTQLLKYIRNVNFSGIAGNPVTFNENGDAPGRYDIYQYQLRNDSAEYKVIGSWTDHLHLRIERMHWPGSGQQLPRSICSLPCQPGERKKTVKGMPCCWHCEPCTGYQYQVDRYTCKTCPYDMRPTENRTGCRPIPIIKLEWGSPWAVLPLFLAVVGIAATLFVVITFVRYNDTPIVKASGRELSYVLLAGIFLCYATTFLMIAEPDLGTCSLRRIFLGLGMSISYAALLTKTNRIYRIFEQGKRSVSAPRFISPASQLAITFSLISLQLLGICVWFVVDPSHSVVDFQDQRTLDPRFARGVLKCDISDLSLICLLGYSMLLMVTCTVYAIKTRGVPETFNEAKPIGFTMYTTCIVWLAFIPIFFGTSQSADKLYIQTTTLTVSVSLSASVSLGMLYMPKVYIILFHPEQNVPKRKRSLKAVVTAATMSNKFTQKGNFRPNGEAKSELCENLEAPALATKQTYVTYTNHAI

The experiment concerns the target human metabotropic Glutamate 4 receptor (mGluR4) (Homo sapiens (Human), UniProt Q14833). The experiment is described as follows: Assay A: in vitro testing of mGluR4 potency (glutamate-induced cAMP lowering, HTRF cAMP). It counts as cell-based. The settings on record: HEK293 cells overexpressing human mGluR4; 10 uM L-glutamic acid, 1 uM forskolin; compounds of the present invention. As to the method:
A. In Vitro Testing of mGluR4 Potency
The in vitro activity of the compounds according to the invention may be investigated as follows:
The HEK293 cell overexpressing the human metabotropic Glutamate 4 receptor are thawed at 37° C. and immediately diluted with cell culture medium. After centrifugation, the cell pellet is re-suspended in medium and then distributed from a stirred spinner flask into the wells of the assay plate. The plates are incubated for one hour at room temperature before they are incubated for 24 hours at 37° C./5% CO2. After washing the cells in the plate three times with 80 uL HBSS/HEPES buffer (10 uL buffer remained in the wells after washing), 5 uL per well of compounds diluted in HBSS/HEPES buffer containing 0.2% BSA (final concentration: 0.1%) and 1 mM IBMX (final concentration: 0.5 mM) are added to the wells of the assay plate. Thereafter 5 uL per well of L-Glutamic acid (final concentration: 10 uM), forskolin (final concentration: 1 uM) and 1 mM IBMX (final concentration: 0.5 mM) dissolved in HBSS/HEPES buffer containing 0.2% BSA (final concentration: 0.1%) are added to the assay plate (final DMSO concentration: 1%). Several wells of the assay plate are used either for the positive and the negative controls or for the cAMP standard curve. The assay plate is incubated for 30 minutes at room temperature. Then 5 ul per well of Anti-cAMP-Antibody-d2 solution and 5 ul per well of cAMP-Europium Cryptate dilution are added to all wells of the plate and the plate is incubated another 60 minutes light protected at room temperature. The emission at 615 nm and 665 nm (Excitation wavelength: 320 nm) are measured on the EnVision™ reader (Perkin Elmer). The ratio between the emission at 665 nm and 615 is calculated by the reader. The whole assay is performed in the dark or under green light.
The cAMP standard is prepared by diluting the cAMP stock solution with HBSS/Hepes buffer: 5 μl/well of the cAMP dilutions (in HBSS/Hepes buffer containing 1 mM IBMX and 0.2% BSA—final concentration: 0.5 mM IBMX and 0.1% BSA) are added to 10 ul/well HBSS/Hepes buffer plus 5 ul/well 4% DMSO in HBSS/Hepes containing 0.2% BSA (final DMSO concentration: 1%—like in the wells containing compounds) in the wells of the assay plate. The final cAMP concentrations in the assay plate are: 0, 0.17, 0.69, 2.78, 11.1, 44.5, 178, and 712 nM (two wells/cAMP concentration).
Each assay microtiter plate contained also wells with vehicle controls instead of compound as controls for L-Glutamic acid induced signal (negative control; 100% CTL; 10 uM L-Glutamic acid+1 uM forskolin+0.5 mM IBMX+1% DMSO) and wells with vehicle controls without L-Glutamic acid as controls for non-specific changes in signal (positive control; 0% CTL; 0 uM L-Glutamic acid+1 uM forskolin+0.5 mM IBMX+1% DMSO).
The analysis of the data is performed by the calculation the ratio between the emission at 665 nm and the emission at 615 nm (Em665/Em615 ratio). Thereafter the signals of the compounds are normalized using the positive and negative controls by the following formula:
PoC=100×((Signal Sample−Positive Control)/(Negative Control−Positive Control))
Take `CCn1c(C(NC(=O)c2cnc(C)cn2)C2CCOC2)nc2cc(Cl)ccc21` (single isomer, unassigned) [Example 161, N-[(5-chloro-1-ethyl-1H-1,3-benzodiazol-2-yl)(oxolan-3-yl)methyl]-5-methylpyrazine-2-carboxamide]: the half-inhibitory concentration (IC50) came to 14 nM.
Compound `CCn1c(C(NC(=O)c2cnc(C)cn2)C2CCOC2)nc2cc(Cl)ccc21` (single isomer, unassigned) [Example 162, N-[(5-chloro-1-ethyl-1H-1,3-benzodiazol-2-yl)(oxolan-3-yl)methyl]-5-methylpyrazine-2-carboxamide] registered an IC50 of 30 nM.
In turn, `CCn1c(C(NC(=O)c2cnc(C)cn2)C2CCOC2)nc2ccc(Cl)cc21` (single isomer, unassigned) [Example 163, N-[(6-chloro-1-ethyl-1H-1,3-benzodiazol-2-yl)(oxolan-3-yl)methyl]-5-methylpyrazine-2-carboxamide] showed an IC50 of 27 nM.
For `CCn1c(C(NC(=O)c2cnc(C)cn2)C2CCOC2)nc2ccc(Cl)cc21` (single isomer, unassigned) [Example 164, N-[(6-chloro-1-ethyl-1H-1,3-benzodiazol-2-yl)(oxolan-3-yl)methyl]-5-methylpyrazine-2-carboxamide], the IC50 turned out to be 35 nM.
For `CCn1c([C@@H](NC(=O)c2cnc(C)cn2)C2CC2)nc2cc(F)ccc21` [Example 1, N-[(S)-cyclopropyl(1-ethyl-5-fluoro-1H-1,3-benzodiazol-2-yl)methyl]-5-methylpyrazine-2-carboxamide], the IC50 came out at 4 nM.
`COCCn1c([C@@H](NC(=O)c2cnc(C)cn2)[C@@H](C)OC)nc2cc(OC(F)(F)F)ccc21` [Example 2, N-[(1R,2R)-2-methoxy-1-[1-(2-methoxyethyl)-5-(trifluoromethoxy)-1H-1,3-benzodiazol-2-yl]propyl]-5-methylpyrazine-2-carboxamide] came in with a 50% inhibitory concentration (IC50) of 2 nM.
`CCn1c([C@@H](NC(=O)c2cnc(C(F)F)cn2)C2CC2)nc2cc(F)ccc21` [Example 3, N-[(S)-cyclopropyl(1-ethyl-5-fluoro-1H-1,3-benzodiazol-2-yl)methyl]-5-(difluoromethyl)pyrazine-2-carboxamide] displayed an IC50 of 3 nM.
Compound `O=C(N[C@H](c1nc2cc(F)ccc2n1CC(F)F)C1CC1)c1cnc(C(F)F)cn1` [Example 4, N-[(S)-cyclopropyl[1-(2,2-difluoroethyl)-5-fluoro-1H-1,3-benzodiazol-2-yl]methyl]-5-(difluoromethyl)pyrazine-2-carboxamide] registered a 50% inhibitory concentration (IC50) of 4 nM.
`COCCn1c([C@@H](NC(=O)c2cnc(C(F)F)cn2)C2CC2)nc2cc(F)ccc21` [Example 5, N-[(S)-cyclopropyl[5-fluoro-1-(2-methoxyethyl)-1H-1,3-benzodiazol-2-yl]methyl]-5-(difluoromethyl)pyrazine-2-carboxamide]: the IC50 came to 5 nM.
Take `COCCn1c([C@@H](NC(=O)c2cnc(C)cn2)C2CC2)nc2cc(F)ccc21` [Example 6, N-[(S)-cyclopropyl[5-fluoro-1-(2-methoxyethyl)-1H-1,3-benzodiazol-2-yl]methyl]-5-methylpyrazine-2-carboxamide]: 7 nM corresponded to half-maximal inhibition (IC50).
As to `Cc1cnc(C(=O)N[C@H](c2nc3cc(F)ccc3n2C(C)C)C2CC2)cn1` [Example 7, N-[(S)-cyclopropyl[5-fluoro-1-(propan-2-yl)-1H-1,3-benzodiazol-2-yl]methyl]-5-methylpyrazine-2-carboxamide], the IC50 came out at 4 nM.
`COCCn1c([C@@H](NC(=O)c2cnc(C)cn2)C2CC2)nc2cc(Cl)ccc21` [Example 8, N-[(S)-[5-chloro-1-(2-methoxyethyl)-1H-1,3-benzodiazol-2-yl](cyclopropyl)methyl]-5-methylpyrazine-2-carboxamide] returned an IC50 of 3 nM.
The compound `Cc1cnc(C(=O)N[C@H](c2nc3c(F)c(C)ccc3n2CC(F)F)C2CC2)cn1` [Example 9, N-[(S)-cyclopropyl[1-(2,2-difluoroethyl)-4-fluoro-5-methyl-1H-1,3-benzodiazol-2-yl]methyl]-5-methylpyrazine-2-carboxamide] displayed an IC50 of 4 nM. The IC50 values of the last two compounds are within 1.5-fold of each other.
To `Cc1cnc(C(=O)N[C@H](c2nc3cc(F)ccc3n2CC(F)F)C2CC2)cn1` [Example 10, N-[(S)-cyclopropyl[1-(2,2-difluoroethyl)-5-fluoro-1H-1,3-benzodiazol-2-yl]methyl]-5-methylpyrazine-2-carboxamide] belongs 5 nM; to `COCCn1c([C@@H](NC(=O)c2cnc(C(F)F)cn2)C2CC2)nc2cc(Cl)ccc21` [Example 11, N-[(S)-[5-chloro-1-(2-methoxyethyl)-1H-1,3-benzodiazol-2-yl](cyclopropyl)methyl]-5-(difluoromethyl)pyrazine-2-carboxamide], 3 nM; to `COCCn1c([C@@H](NC(=O)c2cnc(C)cn2)C2CC2)nc2cc(OC(F)(F)F)ccc21` [Example 12, N-[(S)-cyclopropyl[1-(2-methoxyethyl)-5-(trifluoromethoxy)-1H-1,3-benzodiazol-2-yl]methyl]-5-methylpyrazine-2-carboxamide], 2 nM.
Regarding `COCCn1c([C@@H](NC(=O)c2cnc(C)cn2)C2CC2)nc2cc(OC(F)F)ccc21` [Example 13, N-[(S)-cyclopropyl[5-(difluoromethoxy)-1-(2-methoxyethyl)-1H-1,3-benzodiazol-2-yl]methyl]-5-methylpyrazine-2-carboxamide], the half-inhibitory concentration (IC50) came to 7 nM.
Regarding `Cc1cnc(C(=O)N[C@H](c2nc3cc(C)c(F)cc3n2CC(F)F)C2CC2)cn1` [Example 15, N-[(S)-cyclopropyl[1-(2,2-difluoroethyl)-6-fluoro-5-methyl-1H-1,3-benzodiazol-2-yl]methyl]-5-methylpyrazine-2-carboxamide], half-maximal inhibition (IC50) was put at 3 nM.
Compound `COCCn1c([C@@H](NC(=O)c2cnc(C)cn2)C2CC2)nc2cc(F)c(F)cc21` [Example 16, N-[(S)-cyclopropyl[5,6-difluoro-1-(2-methoxyethyl)-1H-1,3-benzodiazol-2-yl]methyl]-5-methylpyrazine-2-carboxamide] had an IC50 of 5 nM. This IC50 is about 1.7-fold higher than that of the compound before.
`CCn1c([C@@H](NC(=O)c2cnc(C)cn2)C(C)C)nc2cc(F)ccc21` [Example 17, N-[(1S)-1-(1-ethyl-5-fluoro-1H-1,3-benzodiazol-2-yl)-2-methylpropyl]-5-methylpyrazine-2-carboxamide]: half-maximal inhibition (IC50) required 4 nM.
To `COCCn1c([C@@H](NC(=O)c2cnc(C)cn2)C2CC2)nc2c(C)c(C#N)ccc21` [Example 18, N-[(S)-[5-cyano-1-(2-methoxyethyl)-4-methyl-1H-1,3-benzodiazol-2-yl](cyclopropyl)methyl]-5-methylpyrazine-2-carboxamide] belongs 7 nM; to `COCCn1c(C(NC(=O)c2cnc(C)cn2)C2CCCO2)nc2cc(C(F)(F)F)ccc21` (stereo not drawn) [Example 19-2, N-{[1-(2-methoxyethyl)-5-(trifluoromethyl)-1H-1,3-benzodiazol-2-yl](oxolan-2-yl)methyl}-5-methylpyrazine-2-carboxamide], 62 nM.
`COCCn1c([C@@H](NC(=O)c2cnc(C)cn2)C2CC2)nc2cc(Cl)c(F)cc21` [Example 21] came in with a concentration for half-maximal inhibition (IC50) of 3 nM.
To `CO[C@H](C)[C@H](NC(=O)c1cnc(C)cn1)c1nc2cc(C(F)(F)F)ccc2n1C` [Example 22, N-[(1R,2R)-2-methoxy-1-[1-methyl-5-(trifluoromethyl)-1H-1,3-benzodiazol-2-yl]propyl]-5-methylpyrazine-2-carboxamide] belongs 6 nM.
